Laboratory results reported in a melting point compilation (Tetko et al.; mined from patent text by program, amines drawn as free bases though some values may be those of a salt).
Non-standard residues stand in square brackets, D forms with d. Residues, ends and D or L forms follow the SMILES beside them. *: point of attachment. Tos = Cc1ccc(S(=O)(=O)*)cc1; Sar = CNCC(=O)O

melting point | Structure (SMILES)
155 to 157 °C | COCC(=O)Nc1c(C(=O)c2cccc(C)c2)[nH]c2ccc([N+](=O)[O-])cc12
91 to 94 °C | Cn1cc(/C=C/C#N)c2ccccc21
213 °C | CCOc1cc(-c2cc(C(F)F)n3ncc(C(=O)Nc4cccc(S(=O)(=O)NC5CC5)c4)c3n2)ccc1C(F)(F)F
98 °C | CCCCOC(=O)N1CCNCC1
152 to 153 °C | CCN1C(=O)NC(=C(C(C)=O)C(C)=O)C1=O
156 to 158 °C | COc1ccc(CC(NC(=O)c2ccccc2)c2cccnc2)cc1OC (stereo unspecified)
94 to 95 °C | O=C(Nc1ccc2c(c1)COCC2)OCc1ccccc1
113 °C | N#Cc1cc(N)ccc1N1CCCC1
108 to 109 °C | N#Cc1cc2c(cc1F)OCC21C(=O)N(Cc2ccccn2)c2ccccc21 (stereo unspecified)
190 °C | CC(C)(C)c1cc(Cn2nc(CCCCc3nn(Cc4cc(C(C)(C)C)c(O)c(C(C)(C)C)c4)c(=O)o3)oc2=O)cc(C(C)(C)C)c1O
204 to 207 °C | Clc1ccc(Nc2cncc(-n3ncc4ccccc43)n2)cc1
248 to 249 °C | COC(=O)c1ccc(-c2oc3nc[nH]c(=O)c3c2C(=O)OCc2ccccc2)cc1
190 to 191 °C | Cc1ccc(S(=O)(=O)OCC2COc3ccc4c(=O)ccoc4c3O2)cc1 (stereo unspecified)
140 to 142 °C | COC(=O)COc1cc(C(=O)N2CCOCC2)ccc1[N+](=O)[O-]
285 to 287 °C | CCCc1c(Cl)sc2[nH]c(=O)c(=O)[nH]c12
130 °C | CCCCN1CC2CN(S(=O)(=O)c3ccc(NC(C)=O)cc3)CC(C1)C2(C)C
164 to 165 °C | COc1ccc2c(C(=S)N(C)CC(=O)O)cccc2c1C(F)(F)C(F)(F)F
113 to 115 °C | Cc1cc(C)n(C(=O)CCNS(=O)(=O)c2ccccc2)n1
190 °C | N#Cc1cc(O)n(-c2ccccc2)n1
128 to 130 °C | Cc1ccc(S(=O)(=O)N(C)CC(=O)N[C@@H](Cc2ccccc2)C(=O)O)cc1 (Tos-[Sar]-Phe-OH)
> 245 °C | N#Cc1cnc2sc(-c3ccccc3)cc2c1-c1ccc2[nH]ccc2c1
248 to 250 °C | O=c1[nH]c2ncc(-c3cccc(-c4nnn[nH]4)c3)nc2n1CC1CCCCC1
111 to 123 °C | CCCCCCC(C(=O)OCC)S(=O)(=O)c1ccc(C)cc1 (stereo unspecified)

melting point | Structure (SMILES)
79 to 80 °C | CCOCCNC(=O)c1cccc(-c2cccc3cc(Cc4cc(F)cc(Cl)c4)sc23)c1
202 to 204 °C | O=C(N[C@H]1CCCNC1=O)c1ccc(F)c(F)c1
138 to 140 °C | CNC(=O)[C@@H](NC(=O)[C@@H](CC(=O)O)n1ccc(-c2ccc(C#N)cc2)c1)C(C)(C)C
100 to 102 °C | CC(Oc1ccc(F)cc1)c1ccnc2ncnn12 (stereo unspecified)
63 to 65 °C | C#CCN1CCC(OC)(c2cccc(OCc3ccc4ccccc4c3)c2)C1 (stereo unspecified)
139 to 143 °C | CSc1ncc(C(=N)NO)cc1Cl
105 to 107 °C | CCCC(=O)NC[C@@H]1CN(c2nc3c(cc2F)c(=O)c(C(=O)OCC)cn3C2CC2)C[C@H]1F (relative stereo)
173 to 174 °C | CC(C)C(C#N)C(=O)NC(N)=O (stereo unspecified)
195 to 196 °C | Cc1c(C)c2c(c(C)c1NC(=O)CC(C)(C)C)C(c1ccc(C=O)cc1)CO2 (stereo unspecified)
124 to 126 °C | CCCc1nc(C)c2nnc3ccc(F)cc3n12
237 to 239 °C | Cc1cccc(-c2[nH]nc(C(F)(F)F)c2-c2ccncc2)c1
244 to 246 °C | CCOc1ccc2[nH]c3c([N+](=O)[O-])ccc(Cl)c3c(=O)c2c1
167 to 169 °C | NS(=O)(=O)c1cc(C(=O)O)cc(NCc2ccco2)c1-c1ccccc1
99 to 101 °C | COCn1cnc(-c2ccc(OC)cc2)c1-c1ccc(OC)cc1
195 to 196 °C | CN(C)c1nc2sc3c(NCCN4CCOCC4)ncnc3c2c2c1COC(C)(C)C2
248 to 250 °C | Cc1ccc(Cl)c2[nH]c(=O)oc(=O)c12
238 to 240 °C | COc1ccc2nc(NC(=O)C(CC3CCCC3)c3ccc(S(=O)(=O)NCc4ccccc4F)cc3)sc2n1 (stereo unspecified)
158 to 160 °C | COc1ccc(CCN(CCC2CCCCC2)C(=O)CCCCC(N)=O)cc1OC
205 to 206 °C | COc1ccc(CNc2ccc(O)c(C(=O)O)c2)cc1
124 to 126 °C | FC(F)(F)c1cccc(Nc2nc(NCc3ccco3)nc(OCc3ccncc3)n2)c1
125 to 127 °C | CCC(=NOCC=CCl)C1=C(O)CC(c2ccc(NS(C)(=O)=O)cc2)CC1=O (stereo unspecified)
107 to 108 °C | Fc1ccc(C2CSCC(=S)N2)cc1 (stereo unspecified)
200 °C | COc1ccc(C(O)(c2ccc3c(c2)c(-c2cccc(Cl)c2)nc2nnnn23)c2cncn2C)cc1 (stereo unspecified)

melting point | Structure (SMILES)
80 to 82 °C | C[C@H](C(=O)O)c1ccc2cc(OCCCCCCc3ccc(OCc4ccccc4)c(OCc4ccccc4)c3)ccc2c1
89 to 91 °C | CN1CCN(S(=O)(=O)c2ccc(N3CCC(NC[C@H](O)c4ccc(O)c(NS(C)(=O)=O)c4)CC3)cc2)CC1
165 to 166 °C | CCN1C(=O)C(=C2Oc3ccccc3N2CC)SC1=S
125 to 127 °C | CC[C@H](C)[C@H](NS(=O)(=O)c1cccc2ccccc12)C(=O)N[C@H]1CCOC1OC (stereo partly specified)
94 to 95 °C | Cc1cc(C(=S)Cl)c(Cl)cc1Cl
241 to 243 °C | CC1CCc2nc3c(N)nc4ccccc4c3n2N1 (stereo unspecified)
136 to 138 °C | CNc1ncc(-c2ccccc2)c(-c2ccccc2)n1
188 °C | COc1cc(C(C)C)c2c(c1)S(=O)(=O)NC2=O
149 °C | CC(=O)OC1CSC(Oc2cccnc2-c2ccc(F)cc2)C(OC(C)=O)C1OC(C)=O (stereo unspecified)
143 to 145 °C | CC(=O)OCCn1c([N+](=O)[O-])cnc1C
188 °C | O=C1NC(=O)C(=Cc2ccc(OCC3CN(c4ccccn4)CCO3)cc2)S1 (stereo unspecified)
205 to 208 °C | Cc1ccc(N2CCCN(c3ccnc4sc(C(N)=O)c(N)c34)CC2)nc1
40 to 41 °C | CCCCCCCCCCCCCCCCCCNC(=O)SCC(COCc1ccccc1)OC (stereo unspecified)
94 °C | O=C1CC(CO)N1Cc1ccccc1 (stereo unspecified)
198 to 199 °C | O=C(NOc1ncc(C(F)(F)F)cc1Cl)c1cccc2ccccc12
113 to 115 °C | O=CC1c2ccccc2C(C=O)c2cc(Cl)ccc21 (stereo unspecified)
112 to 114 °C | Cc1ccccc1C(=O)Nc1ccc(C(=O)N2Cc3ccccc3Cc3ccccc32)c(C)c1
105 to 107 °C | O=S(=O)(c1ccc(Cl)cc1)C(Cc1ccccn1)c1cc(F)ccc1F (stereo unspecified)
215 to 216 °C | COC(=O)C1c2c(C)c(OC(=O)c3ccc([N+](=O)[O-])cc3)c(C)c(C)c2OC1(C)C (stereo unspecified)
124 to 126 °C | Cc1cc(C)c2ncc(N(Cc3cc(C(C)(C)C)c(O)c(C(C)(C)C)c3)C(=O)Nc3ccc(F)cc3F)c(-c3ccccc3Cl)c2c1
149 to 150 °C | Cc1c(CO)oc2ccc([N+](=O)[O-])cc12
> 330 °C | O=c1[nH]c(C(F)(F)F)nc2ccc(S(=O)(=O)O)cc12

Structure (SMILES) | melting point
CNCC(O)c1ccc(F)cc1 (stereo unspecified) | 77 to 78.8 °C
O=CNc1ccc(-c2ccc(C(=O)N3CCN4CCC3CC4)o2)cc1 | 236 °C
CCC(C)(C)NCC(O)c1ccc(O)c(O)c1OC (stereo unspecified) | 172 to 174 °C
